Key:
Assay type in all cases: cell-based, human
KRT10 (keratin 10) = test: KRT10 gene expression in UVB-irradiated NHEK (Taqman real-time PCR); details: UVB 25 mJ/cm^2, 10 nM compound, fourth day of culture, FIG. 2
Experimental: (§1) Normal human epidermal keratinocytes (NHEK) were cultured in a 6-well plate incubator. 24 hours later, the normal human epidermal keratinocytes (NHEK) were cultured by replacing it with phosphate-buffered saline (PBS) and irradiating it with UVB (25 mJ/cm^2) and adding 10 nM of a compound represented by Chemical Formula 1-1 (Cayman Chemical) to the NHEK culture medium. On the fourth day of the culture, cells were harvested to separate RNA and synthesize cDNA through RT-PCR (a reverse transcriptional polymerase chain reaction), and the synthesized cDNA was used to perform Taqman real-time PCR and measure gene expression levels of a keratinocyte differentiation markers, KRT1 and KRT10, and a desmosome constituent factor, DSC1, and the results are shown in FIGS. 1 to 3.

DSC1 = DSC1 gene expression in UVB-irradiated NHEK (Taqman real-time PCR); details: UVB 25 mJ/cm^2, 10 nM compound, fourth day of culture, FIG. 3
Experimental: as §1

KRT1 (keratin 1) = test: KRT1 gene expression in UVB-irradiated NHEK (Taqman real-time PCR); details: UVB 25 mJ/cm^2, 10 nM compound, fourth day of culture, FIG. 1
Experimental: as §1

CC/C=C/C/C=C\C[C@H](O)\C=C/C=C/C=C/[C@H](O)C/C=C\CCC(=O)O [Chemical Formula 1-1]
increased again: gene expression level of KRT10 (keratin 10) (KRT10 (keratin 10)) | gene expression level of DSC1 (DSC1) | gene expression level of KRT1 (keratin 1) (KRT1 (keratin 1))
